We go through 12 molecules from ChEMBL document CHEMBL4002634, “Benzoflavones as cholesterol esterase inhibitors: Synthesis, biological evaluation and docking studies” (Bioorg Med Chem Lett, 2017).

Structures are written as SMILES. Activity calls are given as the source filed them. The calls are words filed in the database; no cut-off is given here.

The target in assay [1] is T1, Carboxylic ester hydrolase (Sus scrofa) (UniProt A0A286ZKB1).
T1 sequence (whole entry): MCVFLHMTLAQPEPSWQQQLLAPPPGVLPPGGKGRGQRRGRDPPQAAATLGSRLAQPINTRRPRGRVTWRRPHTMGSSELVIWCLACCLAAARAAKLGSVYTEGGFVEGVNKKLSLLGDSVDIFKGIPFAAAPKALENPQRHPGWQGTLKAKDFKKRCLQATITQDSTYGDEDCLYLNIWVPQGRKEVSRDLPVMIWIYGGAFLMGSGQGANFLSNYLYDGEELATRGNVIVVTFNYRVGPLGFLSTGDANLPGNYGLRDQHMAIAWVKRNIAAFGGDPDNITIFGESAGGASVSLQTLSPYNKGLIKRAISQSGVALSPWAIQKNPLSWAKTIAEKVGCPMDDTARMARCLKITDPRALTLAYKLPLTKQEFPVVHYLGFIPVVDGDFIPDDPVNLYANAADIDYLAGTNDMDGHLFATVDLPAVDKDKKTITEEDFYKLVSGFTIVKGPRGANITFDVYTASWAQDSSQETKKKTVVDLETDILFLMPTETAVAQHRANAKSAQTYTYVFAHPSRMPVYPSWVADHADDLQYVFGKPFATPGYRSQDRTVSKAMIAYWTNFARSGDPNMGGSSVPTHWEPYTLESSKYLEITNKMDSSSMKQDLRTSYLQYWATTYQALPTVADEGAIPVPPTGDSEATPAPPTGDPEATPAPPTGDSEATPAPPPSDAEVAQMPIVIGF
Briefly: Inhibition of porcine cholesterol esterase at 5 nM using para-nitrophenyl butyrate as substrate after 5 mins in presence of sodium taurocholate by spectrophotometric method relative to control.

For assay [2], the target named is T1, Carboxylic ester hydrolase (Sus scrofa). Briefly: Inhibition of porcine cholesterol esterase at 10 nM using para-nitrophenyl butyrate as substrate after 5 mins in presence of sodium taurocholate by spectrophotometric method relative to control.
Assay [3] deals with T2, Carboxylic ester hydrolase (Sus scrofa, UniProt A0A286ZKB1).
T2 sequence (A0A286ZKB1 whole entry): T1 sequence (whole entry)
Nature of the assay: Inhibition of porcine cholesterol esterase using para-nitrophenyl butyrate as substrate after 5 mins in presence of sodium taurocholate by spectrophotometric method.

Assay [4] deals with T1, Carboxylic ester hydrolase (Sus scrofa). Briefly: Inhibition of porcine cholesterol esterase at 25 nM using para-nitrophenyl butyrate as substrate after 5 mins in presence of sodium taurocholate by spectrophotometric method relative to control.
The target is the same in assay [5]. Nature of the assay: Inhibition of porcine cholesterol esterase at 1 nM using para-nitrophenyl butyrate as substrate after 5 mins in presence of sodium taurocholate by spectrophotometric method relative to control.
For assay [6] the target is unchanged. Nature of the assay: Inhibition of porcine cholesterol esterase at 50 nM using para-nitrophenyl butyrate as substrate after 5 mins in presence of sodium taurocholate by spectrophotometric method relative to control.
The target is the same in assay [7]. Nature of the assay: Mixed-type inhibition of porcine cholesterol esterase at 1 to 50 nM using para-nitrophenyl butyrate as substrate after 5 mins in presence of sodium taurocholate by Line-weaver-Burk plot analysis.

As to `O=c1cc(-c2cc(F)cc(F)c2)oc2c1ccc1ccccc12`, the inhibition was determined as 80% in assay [1]; 90% in assay [2]; 96% in assay [4]; 60% in assay [5]; 100% in assay [6]. Further, the IC50 in assay [3] (read-out: IC50) is 0.00078 µM. Further, in assay [7], the inhibition result is “Active”.

For the molecule `O=c1cc(-c2ccc(C(F)(F)F)cc2)oc2c1ccc1ccccc12`, the inhibition in assay [1] is 29%; in assay [2] it was 35%; in assay [4], 46%; in assay [5], 25%; in assay [6] it was 56%. Also, the IC50 entry in assay [3] is recorded as “Not Active”.

Consider `COc1ccc(-c2cc(=O)c3ccc4ccccc4c3o2)cc1OC`, for which the inhibition was 14% in assay [1]; 20% in assay [2]; 23% in assay [4]; 5% in assay [5]; 25% in assay [6]. Further, the IC50 entry in assay [3] is “Not Active”.

With `O=c1cc(-c2ccc(C(F)(F)F)cc2F)oc2c1ccc1ccccc12`, the inhibition is 43% in assay [1]; 51% in assay [2]; 62% in assay [4]; 33% in assay [5]; 67% in assay [6]. For the same molecule, the concentration for half-maximal inhibition (IC50) in assay [3] (read-out: IC50) came out at 0.039 µM.

As to `O=c1cc(-c2c(F)cccc2F)oc2c1ccc1ccccc12`, the inhibition in assay [1] was found to be 71%; in assay [2], 83%; in assay [4], 88%; in assay [5] it was 54%; in assay [6], 92%. The IC50 in assay [3] (read-out: IC50) came out at 0.00199 µM.

With `O=c1cc(-c2ccc(F)c(C(F)(F)F)c2)oc2c1ccc1ccccc12`, the inhibition amounted to 34% in assay [1]; 43% in assay [2]; 55% in assay [4]; 21% in assay [5]; 63% in assay [6]. In assay [3] (read-out: IC50), the IC50 stood at 0.043 µM.

In the case of `O=c1cc(-c2cc(F)cc(C(F)(F)F)c2)oc2c1ccc1ccccc12`, the inhibition in assay [1] was determined as 38%; in assay [2], 41%; in assay [4], 54%; in assay [5] it was 27%; in assay [6], 62%. For the same molecule, in assay [3] (read-out: IC50), the IC50 stood at 0.043 µM.

`O=c1cc(-c2ccc(CCl)cc2)oc2c1ccc1ccccc12`: the inhibition worked out at 43% in assay [1]; 48% in assay [2]; 60% in assay [4]; 32% in assay [5]; 66% in assay [6]. Also, in assay [3] (read-out: IC50), the IC50 was 0.0392 µM.

With `Cc1ccc(-c2cc(=O)c3ccc4ccccc4c3o2)cc1`, the inhibition in assay [1] was 18%; in assay [2] it was 24%; in assay [4] it was 31%; in assay [5], 14%; in assay [6], 34%. The half-inhibitory concentration (IC50) entry in assay [3] is on record as “Not Active”.

Consider `O=c1cc(-c2ccc(F)cc2F)oc2c1ccc1ccccc12`, for which the inhibition turned out to be 66% in assay [1]; 80% in assay [2]; 91% in assay [4]; 51% in assay [5]; 97% in assay [6]. Besides, the IC50 in assay [3] (read-out: IC50) was 0.00143 µM.

On to `O=c1cc(-c2ccccc2C(F)(F)F)oc2c1ccc1ccccc12`, for which the inhibition in assay [1] came to 32%; in assay [2], 36%; in assay [4], 48%; in assay [5] it was 29%; in assay [6] it was 58%. Also, the IC50 result in assay [3] was “Not Active”.

For `O=c1cc(-c2ccc(I)cc2)oc2c1ccc1ccccc12`, the inhibition worked out at 53% in assay [1]; 71% in assay [2]; 73% in assay [4]; 38% in assay [5]; 75% in assay [6]. Besides, in assay [3] (read-out: IC50), the half-maximal inhibitory concentration (IC50) was found to be 0.0341 µM.
